Test results from PubChem BioAssay (NCI).
Where “and” joins values, the source holds several entries; their conditions need not be identical. Identical values can stand only once.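 Method: 48-hour compound exposure of cells in 96-well plates, five concentrations, linear interpolation of endpoints. Abbreviation: GI50, concentration required for 50% inhibition of growth. Definition used: TGI = concentration required for complete inhibition of growth.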

What was measured:
Experiment in all cases: growth of human tumour cells (NCI), 48 h
[1] = tested on: BT-549 breast
[2] = tested on: K-562 leukemia
[3] = tested on: LOX IMVI melanoma
[4] = tested on: MALME-3M melanoma
[5] = tested on: MDA-MB-231 breast
[6] = tested on: MOLT-4 leukemia
[7] = tested on: NCI-H460 lung
[8] = tested on: OVCAR-5 ovarian
[9] = tested on: SN12C renal
[10] = tested on: TK-10 renal

| SMILES | TGI [1] | TGI [2] | TGI [3] | TGI [4] | TGI [5] | TGI [6] | TGI [7] | TGI [8] | TGI [9] | TGI [10] | GI50 [1] | GI50 [2] | GI50 [3] | GI50 [4] | GI50 [5] | GI50 [6] | GI50 [7] | GI50 [8] | GI50 [9] | GI50 [10] |
| --- | --- | --- | --- | --- | --- | --- | --- | --- | --- | --- | --- | --- | --- | --- | --- | --- | --- | --- | --- | --- |
| COc1ccc(C(C#N)NC23CC4CC(CC(C4)C2)C3)cc1 (stereo not given) | > 100 µM | > 100 µM | > 100 µM | > 100 µM | > 100 µM | > 100 µM | > 100 µM | > 100 µM | > 100 µM | > 100 µM | – | – | – | – | – | – | – | – | – | – |
| C=CC(=O)N1CCC(Oc2cc3c(Nc4ccc(Cl)c(Cl)c4F)ncnc3cc2OC)CC1 | 13.4 µM and > 10 µM | > 100 µM | 5.73 µM and 2.84 µM | 23.9 µM and > 10 µM | 23.8 µM and > 9.63 µM | 17.9 µM and > 8.44 µM | 33.2 µM and > 10 µM | 39 µM and > 10 µM | 25.2 µM and > 10 µM | 6.61 µM and 4.43 µM | 1.9 µM and 2.23 µM | 3.98 µM and 2.68 µM | 1.55 µM and 1.2 µM | 7.36 µM and > 5.35 µM | 3.79 µM and 1.65 µM | 3.38 µM and 2.13 µM | 11.1 µM and 5.88 µM | 4.93 µM and 3.03 µM | 2.88 µM and 1.79 µM | < 0.001 µM |
| O=C(O)CSCCc1ccccc1 | > 100 µM | > 100 µM | > 100 µM | > 100 µM | > 100 µM | > 100 µM | > 100 µM | > 100 µM | > 100 µM | > 100 µM | – | – | – | – | – | – | – | – | – | – |
| Nc1n[nH]c2cccc(C#Cc3cccc(NC(=O)c4cccc(C(F)(F)F)c4)c3)c12 | 11.1 µM | 11.1 µM | 3.41 µM | 10.9 µM | 6.5 µM | 13.3 µM | 15.7 µM | 14 µM | 17.3 µM | 13.7 µM | 3.34 µM | 0.19 µM | 1.53 µM | 0.446 µM | 1.5 µM | 2.21 µM | 4.11 µM | 2.21 µM | 4.09 µM | 5.61 µM |
| C[C@]12CCc3sc(Nc4ccc(OC(F)(F)F)cc4)nc3C1=CC[C@@H]1[C@@H]2CC[C@]2(C)C(=O)CC[C@@H]12 | 7.42 µM | 6.64 µM | 3.18 µM | 16.8 µM | 7.84 µM | 11.9 µM | 11.8 µM | 40.3 µM | 16.1 µM | 32 µM | 1.78 µM | 1.87 µM | 1.74 µM | 3.45 µM | 2.42 µM | 1.53 µM | 3.25 µM | 9.06 µM | 3.44 µM | 4.82 µM |
